Experimental data taken from US12227495B2, “Herbicidal compounds” (SYNGENTA CROP PROTECTION AG, priority 2018, dated 2025).

Assays:
Type in all cases: in vivo
Settings in all cases: evaluated after 13 days
[1] = system: Amaranthus retoflexus (AMARE); assay: Pre-emergence herbicide test, glasshouse, percentage damage
Summary of the method: (§1)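 Percentage damage, recorded 13 days after treatment, is given as a five-point score (1=0-20%, 2=21-40%, 3=41-60%, 4=61-80%, 5=81-100%). Plants grown in soil pots under 24/16 °C, 14 h light and 65% humidity received a 500 g/ha spray (unless stated otherwise).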

Lolium perenne (LOLPE) [2] = assay: as above
Summary of the method: as §1

Solanum nigrum (SOLNI) [3] = assay: as above
Summary of the method: as §1

[4] = system: Ipomoea hederacea (IPOHE); assay: as above
Summary of the method: as §1

Setaria faberi (SETFA) [5] = assay: as above
Summary of the method: as §1

[6] = system: Echinochloa crus-galli (ECHCG); assay: as above
Summary of the method: as §1

[7] = system: Amaranthus retoflexus (AMARE); assay: Post-emergence herbicide test, glasshouse, percentage damage
Summary of the method: as §1

Lolium perenne (LOLPE) [8] = assay: as above
Summary of the method: as §1

Solanum nigrum (SOLNI) [9] = assay: as above
Summary of the method: as §1

[10] = system: Ipomoea hederacea (IPOHE); assay: as above
Summary of the method: as §1

Setaria faberi (SETFA) [11] = assay: as above
Summary of the method: as §1

[12] = system: Echinochloa crus-galli (ECHCG); assay: as above
Summary of the method: as §1

| SMILES | Pre-emergence Test AMARE percentage damage (five point scale) ([1]; rate 1000 g/ha) | Pre-emergence Test LOLPE percentage damage (five point scale) (Lolium perenne (LOLPE) [2]; rate 1000 g/ha) | Pre-emergence Test SOLNI percentage damage (five point scale) (Solanum nigrum (SOLNI) [3]; rate 1000 g/ha) | Pre-emergence Test IPOHE percentage damage (five point scale) ([4]; rate 1000 g/ha) | Pre-emergence Test SETFA percentage damage (five point scale) (Setaria faberi (SETFA) [5]; rate 1000 g/ha) | Pre-emergence Test ECHCG percentage damage (five point scale) ([6]; rate 1000 g/ha) | percentage damage caused to the plant, AMARE ([7]; 1000 g/ha) | percentage damage caused to the plant, LOLPE (Lolium perenne (LOLPE) [8]; 1000 g/ha) | percentage damage caused to the plant, SOLNI (Solanum nigrum (SOLNI) [9]; 1000 g/ha) | percentage damage caused to the plant, IPOHE ([10]; 1000 g/ha) | percentage damage caused to the plant, SETFA (Setaria faberi (SETFA) [11]; 1000 g/ha) | percentage damage caused to the plant, ECHCG ([12]; 1000 g/ha) | other results |
| --- | --- | --- | --- | --- | --- | --- | --- | --- | --- | --- | --- | --- | --- |
| Fc1cccc(Oc2cc(Cl)ccn2)c1-c1cc(C(F)F)no1 [Compound A60] | 5 (5=81-100%) | 1 (1=0-20%) | 1 (1=0-20%) | 1 (1=0-20%) | 1 (1=0-20%) | 2 (2=21-40%) | 4 (4=61-80%) | 1 (1=0-20%) | 4 (4=61-80%) | 2 (2=21-40%) | 2 (2=21-40%) | 1 (1=0-20%) | – |
| Fc1cc(Cl)cnc1Oc1ccc(Br)c(Br)c1-n1cc(C(F)(F)F)cn1 [Compound A61] | 1 (1=0-20%) | 1 (1=0-20%) | 1 (1=0-20%) | 1 (1=0-20%) | 2 (2=21-40%) | 1 (1=0-20%) | 5 (5=81-100%) | 1 (1=0-20%) | 5 (5=81-100%) | 2 (2=21-40%) | 2 (2=21-40%) | 1 (1=0-20%) | – |
| Fc1cccc(Oc2cc(OC(F)(F)F)ccn2)c1-c1cc(C(F)F)no1 [Compound A62] | 4 (4=61-80%) | 1 (1=0-20%) | 1 (1=0-20%) | 1 (1=0-20%) | 1 (1=0-20%) | 1 (1=0-20%) | 4 (4=61-80%) | 2 (2=21-40%) | 3 (3=41-60%) | 3 (3=41-60%) | 3 (3=41-60%) | 3 (3=41-60%) | – |
| Fc1cc(Cl)cnc1Oc1ccccc1-c1csc(Cl)c1 [Compound A69] | 3 (3=41-60%) | 1 (1=0-20%) | 1 (1=0-20%) | 1 (1=0-20%) | 1 (1=0-20%) | 1 (1=0-20%) | 3 (3=41-60%) | 1 (1=0-20%) | 4 (4=61-80%) | 2 (2=21-40%) | 3 (3=41-60%) | 4 (4=61-80%) | – |
| Fc1cc(Cl)cnc1Oc1ccccc1-c1ccsc1 [Compound A70] | 2 (2=21-40%) | 1 (1=0-20%) | 1 (1=0-20%) | 1 (1=0-20%) | 1 (1=0-20%) | 1 (1=0-20%) | 3 (3=41-60%) | 1 (1=0-20%) | 4 (4=61-80%) | 1 (1=0-20%) | 2 (2=21-40%) | 3 (3=41-60%) | – |
| COc1csc(-c2ccccc2Oc2ncc(Cl)cc2F)c1 [Compound A71] | 5 (5=81-100%) | 1 (1=0-20%) | 1 (1=0-20%) | 1 (1=0-20%) | 1 (1=0-20%) | 1 (1=0-20%) | 4 (4=61-80%) | 1 (1=0-20%) | 5 (5=81-100%) | 1 (1=0-20%) | 2 (2=21-40%) | 1 (1=0-20%) | – |
| Fc1cccc(Oc2ccc(C(F)F)cn2)c1-c1cc(C(F)F)no1 [Compound A77] | – | – | – | – | – | – | – | – | – | – | – | – | Pre-emergence Test AMARE percentage damage (five point scale) ([1]; rate 250 g/ha): 5 (5=81-100%); Pre-emergence Test LOLPE percentage damage (five point scale) (Lolium perenne (LOLPE) [2]; rate 250 g/ha): 2 (2=21-40%); Pre-emergence Test SOLNI percentage damage (five point scale) (Solanum nigrum (SOLNI) [3]; rate 250 g/ha): 4 (4=61-80%); Pre-emergence Test IPOHE percentage damage (five point scale) ([4]; rate 250 g/ha): 1 (1=0-20%); Pre-emergence Test SETFA percentage damage (five point scale) (Setaria faberi (SETFA) [5]; rate 250 g/ha): 5 (5=81-100%); Pre-emergence Test ECHCG percentage damage (five point scale) ([6]; rate 250 g/ha): 2 (2=21-40%); percentage damage caused to the plant, AMARE ([7]; 250 g/ha): 5 (5=81-100%); percentage damage caused to the plant, LOLPE (Lolium perenne (LOLPE) [8]; 250 g/ha): 2 (2=21-40%); percentage damage caused to the plant, SOLNI (Solanum nigrum (SOLNI) [9]; 250 g/ha): 5 (5=81-100%); percentage damage caused to the plant, IPOHE ([10]; 250 g/ha): 1 (1=0-20%); percentage damage caused to the plant, SETFA (Setaria faberi (SETFA) [11]; 250 g/ha): 5 (5=81-100%); percentage damage caused to the plant, ECHCG ([12]; 250 g/ha): 2 (2=21-40%) |
| Fc1cccc(Oc2cc(C(F)(F)F)c(C(F)(F)F)cn2)c1-c1cc(C(F)F)no1 [Compound A78] | 1 (1=0-20%) | 1 (1=0-20%) | 1 (1=0-20%) | 1 (1=0-20%) | 2 (2=21-40%) | 1 (1=0-20%) | 3 (3=41-60%) | 1 (1=0-20%) | 4 (4=61-80%) | 1 (1=0-20%) | 1 (1=0-20%) | 1 (1=0-20%) | – |
| Fc1cccc(Oc2nc(Cl)ccc2C(F)(F)F)c1-c1cc(C(F)F)no1 [Compound A80] | 2 (2=21-40%) | 1 (1=0-20%) | 1 (1=0-20%) | 1 (1=0-20%) | 1 (1=0-20%) | 1 (1=0-20%) | 5 (5=81-100%) | 1 (1=0-20%) | 5 (5=81-100%) | 1 (1=0-20%) | 1 (1=0-20%) | 1 (1=0-20%) | – |
| Fc1cc(Cl)cnc1Oc1ccccc1-n1ncc(C(F)(F)F)n1 [Compound A81] | 5 (5=81-100%) | 1 (1=0-20%) | 3 (3=41-60%) | 2 (2=21-40%) | 4 (4=61-80%) | 4 (4=61-80%) | 5 (5=81-100%) | 1 (1=0-20%) | 4 (4=61-80%) | 2 (2=21-40%) | 4 (4=61-80%) | 4 (4=61-80%) | – |
